# According to PMC8212739 (Clinical and Translational Science, 2021):
# How the values were obtained:
# in vitro [1] = conditions: human, primary human hepatocytes (PHHs) in 2D sandwich cultures
# [2] = system: PHHs in sandwich cultures; experiment: LDH production, hepatotoxicant sensitivity, sandwich cultures; assay type: cell-based; conditions: Homo sapiens, 48 h, read-out: EC50, LDH production
# CYP3A4 [3] = experiment: in vitro; conditions: human, primary human hepatocytes (PHHs) in 2D sandwich cultures
# [4] = system: PHHs in sandwich cultures; experiment: Albumin production, hepatotoxicant sensitivity, sandwich cultures; assay type: cell-based; conditions: Homo sapiens, 48 h, read-out: EC50, albumin secretion
# CYP3A4 [5] = experiment: in vitro; conditions: human, primary human hepatocytes (PHHs) cultured in liver MPS
# PHHs in spheroids [6] = conditions: spheroids vs liver MPS
# CYP3A4 [7] = experiment: in vitro; conditions: human, primary human hepatocytes (PHHs) cultured as 3D spheroids
# PHHs in the liver MPS = experiment: Drug metabolism and phase II metabolites in the liver MPS
# [8] = system: PHHs in sandwich cultures; conditions: sandwich cultures vs liver MPS
# in vitro [9] = conditions: human, primary human hepatocytes (PHHs) cultured as 3D spheroids
# PHHs in liver MPS [10] = experiment: LDH production, hepatotoxicant sensitivity, liver MPS; assay type: cell-based; conditions: Homo sapiens, 48 h, read-out: EC50, LDH production
# PHHs in spheroids [11] = experiment: LDH production, hepatotoxicant sensitivity, spheroids; assay type: cell-based; conditions: Homo sapiens, 48 h, read-out: EC50, LDH production
# PHHs in liver MPS [12] = experiment: Albumin production, hepatotoxicant sensitivity, liver MPS; assay type: cell-based; conditions: Homo sapiens, 48 h, read-out: EC50, albumin secretion
# PHHs in spheroids [13] = experiment: Albumin production, hepatotoxicant sensitivity, spheroids; assay type: cell-based; conditions: Homo sapiens, 48 h, read-out: EC50, albumin secretion
# [14] = Stability of glucuronidated diclofenac in maintenance medium at 37°C; assay type: physicochemical; conditions: 50 µM
# [15] = cited from earlier work
compound,measurement,setting,value
"CC/C(=C(\c1ccccc1)c1ccc(OCCN(C)C)cc1)c1ccccc1 [Tamoxifen, tamoxifen]",EC50 at 2 days,in vitro [1],23.8 µM
"Cc1c(C)c2c(c(C)c1O)CCC(C)(COc1ccc(CC3SC(=O)NC3=O)cc1)O2 (stereo not drawn) [Troglitazone, troglitazone]",EC50 at 2 days,in vitro [1],35.1 µM
same,EC50,[2],77.7 µM
same,EC50,[4],2.6 µM
same,"R, Spearman correlation of CYP3A4 response relative to liver MPS",PHHs in spheroids [6],0.80
same,Extent of metabolism of parent in liver MPS medium,"PHHs in the liver MPS; 50 and 100 µM, 48 h of incubation",almost completely metabolized
same,"R, Spearman correlation of CYP3A4 response relative to liver MPS",[8],0.77
same,EC50 at 2 days,in vitro [9],67.1 µM
same,EC50,PHHs in liver MPS [10],407 µM
same,EC50,PHHs in spheroids [11],94.2 µM
same,EC50,PHHs in liver MPS [12],34.6 µM
same,EC50,PHHs in spheroids [13],51.9 µM
"C[C@H]1O[C@@H](O[C@H]2[C@@H](O)C[C@H](O[C@H]3[C@@H](O)C[C@H](O[C@H]4CC[C@@]5(C)[C@H](CC[C@@H]6[C@@H]5C[C@@H](O)[C@]5(C)[C@@H](C7=CC(=O)OC7)CC[C@]65O)C4)O[C@@H]3C)O[C@@H]2C)C[C@H](O)[C@@H]1O [Digoxin, digoxin]",EC50 at 2 days,in vitro [1],122 µM
same,EC50,[2],102 µM
same,EC50,[4],157 µM
same,"R, Spearman correlation of CYP3A4 response relative to liver MPS",PHHs in spheroids [6],−0.04
same,EC50 at 2 days,in vitro [9],6.4 µM
same,EC50,PHHs in liver MPS [10],146 µM
same,EC50,PHHs in spheroids [11],8.1 µM
same,EC50,PHHs in liver MPS [12],41.6 µM
same,EC50,PHHs in spheroids [13],5.4 µM
"O=C(Cc1ccccc1Nc1c(Cl)cccc1Cl)O[C@@H]1O[C@H](C(=O)O)[C@@H](O)[C@H](O)[C@H]1O [glucuronidated diclofenac, diclofenac glucuronide]",Time of incubation to become unstable in solution,[14],≤ 2 h
same,Detection in the MPS medium,"PHHs in the liver MPS; after 48 h, diclofenac dosed",not detected
C[C@H]1COc2c(N3CCN(C)CC3)c(F)cc3c(=O)c(C(=O)O)cn1c23 [levofloxacin],Hepatotoxicity,[15],does not cause hepatotoxicity
N[C@@H]1[C@H]2CN(c3nc4c(cc3F)c(=O)c(C(=O)O)cn4-c3ccc(F)cc3F)C[C@@H]12 [trovafloxacin],Hepatotoxicity in humans,[15],induces idiosyncratic hepatotoxicity
O=C(O)Cc1ccccc1Nc1c(Cl)cccc1Cl [diclofenac],Concentration in liver MPS culture medium over time,"PHHs in the liver MPS; 50 µM, 4, 8, 24 and 48 hours",decrease over time
